We go through two molecules from US5283321A (priority 1986, dated 1994).

Peptide text beside a SMILES is read from it.

The test system of assay [1] is alkaline phosphatase goat anti-rabbit Ig conjugate. Kind of assay: ELISA, reaction between the synthetic peptide and conjugate only (goat anti-rabbit). It is filed as binding. The note with it: no serum, plates read after 5 min. The method, then: (§1) The above synthesized peptide was coupled to a carrier, i.e. bovine serum albumin (BSA) in the following manner to form a peptide antigen (coating antigen) which was used in ELISA.
(§2) Fractions containing coupled material were pooled and the pooled material was used in ELISA as coating antigen and was added directly, without any previous dilution, to the microplate.
(§3) PERFORMANCE 1. Coating of microplates. Microplates were incubated with 0.1 ml of antigen in PBS at room temperature (20°-25° C.) over night.
(§4) 2. Incubation with bovine serum albumin (BSA) and serum. The plates were washed four times and then incubated with 0.1 ml of 1% (w/v) BSA in PBS at 37° C. for one hour. After washing, 0.1 ml of serum appropriately diluted in incubation buffer, was added to the wells and the plate(s) was incubated at room temperature for one hour.
(§5) 3. Incubation with conjugate. After washing, 0.1 ml of conjugate appropiately diluted in incubation buffer, was added to the wells and the plate(s) was incubated at room temperature for two hours.
(§6) 4. After washing, 0.1 ml of the enzyme substrate solution was added to the wells. The plates were kept at room temperature and the absorbance at 405 nm was read after the time indicated below. […]
(§7) The plates were read at times indicated below in an automated ELISA-reader (Titertek, Multiscan). […]
A general note: ELISA stands for enzyme-linked immunosorbent assay.

The subject of assay [2] is spleen cells from a NMRI mouse. Kind of assay: LAF assay, lymphocyte or thymocyte proliferating activity (3H-thymidine incorporation). Format: cell-based. The settings on record: 48 h + 16 h with 3H-thymidine. (Dividing cells build labelled thymidine or BrdU into new DNA.)
Another assay concerns alkaline phosphatase. Kind of assay: Similar ELISA experiment where enzyme alone was used. It is filed as binding. The note with it: enzyme alone instead of conjugate. The text has this:
That the synthesized peptide reacted with and bound to the respective conjugate was further shown by the ability of the conjugates alone to bind the peptide.

Assay [3] relates to purified pertussis toxin. The assay can be described thus: Immunization of mice with the synthetic peptide, ELISA of sera against native pertussis toxin. Format: in vivo, mice (NMRI). The settings on record: sera two months after third dose.
In assay [4] the test system is antibodies in rabbit sera. Kind of assay: ELISA, reaction between the synthetic peptide (BSA-coupled coating antigen) and antibodies in rabbit sera. It is filed as binding. The settings on record: goat anti-rabbit conjugate 1/500, plates read after 3 min, peptide coupled to BSA as coating antigen.
For the next assay, the system named is antibodies in human sera. The assay can be described thus: ELISA, reaction between the synthetic peptide (BSA-coupled coating antigen) and antibodies in human sera. Format: binding. The settings on record: swine anti-human conjugate 1/100, plates read after 20 min, peptide coupled to BSA as coating antigen.
In assay [5] the test system is purified pertussis toxin. The assay can be described thus: Challenge of immunized mice with purified pertussis toxin, survival. It is filed as in vivo, mice (NMRI). The settings on record: challenge 20 μg/mouse=5×LD50.
Assay [6] relates to alkaline phosphatase swine anti-human IgG conjugate. The assay can be described thus: ELISA, reaction between the synthetic peptide and conjugate only (swine anti-human). It is filed as binding. The settings on record: no serum, plates read after 13 min. The protocol:
as §1, §2, §3, §4, §5, §6, §7

Take `CC(C)[C@H](NC(=O)[C@H](CO)NC(=O)[C@H](CCCNC(=N)N)NC(=O)[C@H](CCCNC(=N)N)NC(=O)[C@H](CO)NC(=O)[C@@H](NC(=O)[C@H](Cc1ccc(O)cc1)NC(=O)[C@@H]1CCCN1C(=O)[C@H](CC(N)=O)NC(=O)[C@@H]1CCCN1C(=O)[C@H](CC(N)=O)NC(=O)[C@H](C)NC(=O)[C@H](CCCNC(=N)N)NC(=O)[C@@H](NC(=O)[C@H](CCC(N)=O)NC(=O)[C@@H](N)CCCCN)[C@@H](C)O)[C@@H](C)O)C(=O)N[C@@H](C)C(=O)N[C@@H](CO)C(=O)O` [The synthetic peptide, H--Lys--Gln--Thr--Arg--Ala--Asn--Pro--Asn--Pro--Tyr--Thr----Ser--Arg--Arg--Ser--Val--Ala--Ser--OH] (H-KQTRANPNPYTSRRSVAS-OH): the “Absorbance at 405 nm” value in assay [1] stood at 1.23; in assay [4] (serum Rabbit 1 diluted 1/500), 1.21; in assay [4] (serum Rabbit 2 diluted 1/500), 1.05; in the assay with antibodies in human sera (serum Human 1 (one individual) diluted 1/500), 1.11; with antibodies in human sera (serum Human 2 (pool of human sera) diluted 1/500), 1.26; in assay [6], 0.84. Further, the “cpm (range of triplicates)” value in assay [2] (1 μg per well) was 3000-4200 cpm; in assay [2] (10 μg per well), 7000-8500 cpm. The “Binding of the peptide to alkaline phosphatase enzyme alone” value in the assay with alkaline phosphatase is reported as “no binding was observed”. In addition, the “Mean Titre” value with purified pertussis toxin [3] (endpoint titre against pertussis toxin, cut off absorbance 0.1, 17 mice) stood at 2334. Also, the “Titre Range” value in the assay with purified pertussis toxin [3] (endpoint titre against pertussis toxin, cut off absorbance 0.1) was 320-40960. Moreover, the Responders in the assay on purified pertussis toxin [3] (of 17 mice, s.c. 3×0.5 ml BSA-coupled peptide antigen on aluminium hydroxide, one month apart) is 15. The “Days of survival (mean)” value in the assay with purified pertussis toxin [5] (immunized mice with endpoint titre 80-40960 (17 mice)) turned out to be 3.765 days; in the assay on purified pertussis toxin [5] (immunized mice with endpoint titre 320-40960 (15 mice)), 4.000 days; with purified pertussis toxin [5] (immunized mice with endpoint titre 640-40960 (14 mice)), 3.929 days; in the assay on purified pertussis toxin [5] (immunized mice with endpoint titre 1280-40960 (10 mice)), 4.600 days; in the assay on purified pertussis toxin [5] (immunized mice with endpoint titre 2560-40960 (8 mice)) it was 4.875 days; in the assay with purified pertussis toxin [5] (immunized mice with endpoint titre 5120-40960 (6 mice)), 5.333 days. In addition, in the assay on purified pertussis toxin [5] (immunized mice with endpoint titre 10240-40960 (3 mice)), the “Days of survival (mean)” value is given as 6.333 days.

Regarding Phytohaemagglutinin [PHA], the “cpm (range of triplicates)” value in assay [2] (2.5 μg per well) is recorded as 6700-8100 cpm; in assay [2] (5 μg per well), 9800-10400 cpm; in assay [2] (7 μg per well) it was 7000-8100 cpm.
